Experimental data: patent publication US8591865B2, “Renal function analysis method and apparatus” (Pharmacophotonics, Inc., priority 2008, dated 2013)
“And” between values parts separate entries of the source, which are not always exact repeats. Identical values can stand only once. “Also recorded” adds a separate entry of the source.

Columns and labels:
[1] = Intravital 2-photon microscopy of plasma clearance (fluorescence intensity / intensity ratio in kidney blood vessels) after bolus infusion; conditions: kidney of normal male rat, bolus IV infusion of dye mixture, 12-200 seconds
Description: These images were taken as function of time after a bolus intravenous infusion of a dye mixture containing a FITC-inulin (5.5 kD) and 500 kD dextran labeled with a sulforhodamine 101, i.e. Texas Red®. […] A red blood cell (RBC) appears as a dark object as it excludes dye.
The intensity ratio from the blood vessels in FIG. 3 changes over time with a change of relative concentrations of the two dyes.
Each data point in FIG. 5 was the average ratio value of the same region from a blood vessel extracted from an image time-series (such as the images shown in FIG. 3). The data points were plotted every 0.5 seconds up to 200 seconds.

dogs = assay: Gentamycin-induced acute kidney injury in dogs: serum creatinine, BUN, USG, UPC; format: in vivo, dog; conditions: individual dogs; for Creatinine: gentamycin 10 mg/Kg IV q8 hours
Description: Five spayed female young adult hound-type mogrel dogs were confirmed to be in good health based on physical examination, complete blood count, blood chemistry analysis, urinalysis, urine protein-to-creatine ratio (UPC) and aerobic urine culture.

[2] = GFR in swine by iohexol plasma disappearance; format: in vivo, Osawbaw swine; conditions: same swine
[3] = GFR in dog by iohexol analysis; conditions: 33.0 kg dog
Description: The higher noise in the data was caused by the movement during the data collection as the dog was not anesthetized.

[4] = GFR by iohexol plasma clearance in gentamycin-induced AKI dogs; format: in vivo, dog
Procedure: EDTA-anticoagulated blood was collected at 0, 5, 10, 20, 30, 60, 180, 240 and 300 minutes post-injection, centrifuged within 3 hours, and stored at -20° C.

fluorescein isothiocyanate-inulin [FITC-inulin]
glomerular filtration / plasma clearance seen as capillary fluorescence intensity over time [1]: rapidly filtered into the proximal tubular lumen; also recorded: immediate plasma clearance

gentamycin
BUN (dogs; Day 0 (baseline)): 20 mg/dl (2×) and 14 mg/dl and 16 mg/dl and 9 mg/dl | UPC (urine protein-to-creatine ratio) (dogs; Day 0 (baseline)): 0.1 (4×) and 0.2 | USG (urine specific gravity) (dogs; Day 0 (baseline)): 1.014 and 1.030 and 1.048 and 1.044 and 1.052 | Creatinine (dogs; Day 0 (first day of injection, baseline)): 0.8 mg/dl and 1.1 mg/dl and 0.9 mg/dl (2×) and 0.7 mg/dl | Creatinine (dogs; Day 3): 0.9 mg/dl (2×) and 1.0 mg/dl (2×) and 0.8 mg/dl | BUN (dogs; Day 3): 16 mg/dl and 12 mg/dl (2×) and 15 mg/dl and 14 mg/dl | UPC (urine protein-to-creatine ratio) (dogs; Day 3): 0.5 and 1.0 and 0.2 and 0.3 (2×) | USG (urine specific gravity) (dogs; Day 3): 1.008 and 1.014 (2×) and 1.000 and 1.010 | Creatinine (dogs; Day 6): 1.2 mg/dl and 1.5 mg/dl and 1.4 mg/dl and 1.0 mg/dl (2×) | BUN (dogs; Day 6): 22 mg/dL and 15 mg/dL and 16 mg/dL and 10 mg/dL and 14 mg/dL | UPC (urine protein-to-creatine ratio) (dogs; Day 6): 0.5 (2×) and 0.0 (2×) and 0.6 | USG (urine specific gravity) (dogs; Day 6): 1.009 and 1.003 and 1.007 and 1.005 and 1.010 | Creatinine (dogs; Day 9): 1.5 mg/dL and 5.3 mg/dL and 1.9 mg/dL and 1.6 mg/dL and 1.1 mg/dL | BUN (dogs; Day 9): 16 mg/dl (2×) and 97 mg/dl and 18 mg/dl and 14 mg/dl | UPC (urine protein-to-creatine ratio) (dogs; Day 9): 2.1 and 2.8 and 3.1 and 1.7 and 1.6 | USG (urine specific gravity) (dogs; Day 9): 1.006 (2×) and 1.011 and 1.004 and 1.005

CC(=O)N(CC(O)CO)c1c(I)c(C(=O)NCC(O)CO)c(I)c(C(=O)NCC(O)CO)c1I (stereo not drawn) [iohexol]
GFR obtained using iohexol samples drawn for six hours [2]: 2.02 mL/min/kg | GFR obtained from iohexol analysis [3]: 4.50 mL/min/kg | GFR: Iohexol Plasma Clearance ([4]; Day 0, 150 mg/kg iohexol IV, individual dogs (repeat results for two dogs), 150 mg/kg): 2.77 mL/min/kg and 4.00 mL/min/kg and 3.71 mL/min/kg and 3.82 mL/min/kg and 4.40 mL/min/kg | GFR: Iohexol Plasma Clearance ([4]; Day 3 of gentamycin, individual dogs): 2.00 mL/min/kg and 3.45 mL/min/kg and 2.05 mL/min/kg and 4.17 mL/min/kg and 3.06 mL/min/kg | GFR: Iohexol Plasma Clearance ([4]; Day 6 of gentamycin, individual dogs): 2.78 mL/min/kg and 2.05 mL/min/kg and 2.46 mL/min/kg and 1.44 mL/min/kg and 3.36 mL/min/kg | GFR: Iohexol Plasma Clearance ([4]; Day 9 of gentamycin, individual dogs): 1.87 mL/min/kg and 0.10 mL/min/kg and 1.49 mL/min/kg and 2.47 mL/min/kg | clearance ([4]; hound-type mongrel, dog, plasma, iv, 150 mg/kg, GFR: Iohexol Plasma Clearance, Day 0, 150 mg/kg iohexol IV, individual dogs (repeat results for two dogs)): 3.28 mL/min/kg
